Measurements: patent US8075902B2, “Diagnosis and treatment of cancer related to human dormancy” (priority 2007, dated 2011)

Tests used:
[1] = cited from earlier work
[2] = tested on: AU565 human breast cancer cells; test: Combination study (MTT), AU565 breast cancer cells, Example 6; format: cell-based; settings: 6 days, #3 at 2%, #5 at 4%, #6 at 12.5%, FIG. 4
Description: To determine if a combination of antimicrobial agents plus anti-hibernation agents would act synergistically to inhibit cancer, we carried out another study with the human breast cancer cell line AU565 in vitro. We used solution #3 as described above, which included isoniazid (INH), rifampin, ethambutol, minocycline, metronidazole, acyclovir and telithromycin at a 2% concentration of the previous mixture used in Example 5. This was to decrease the cell growth inhibition to ease interpretation of the results. We combined #3 with #6 (curcumin) and #3 with #5 (luteolin) to investigate the synergistic potential of these combinations using the following procedure. […] AU565 human breast cancer cells were routinely maintained in RPMI-1640 medium supplemented with 10% fetal bovine serum, 2 mM sodium pyruvate, and 4.2 g/L glucose. The cells were cultured at 37° C. in an atmosphere of 95% air/5% CO2 and 100% humidity. When cells reached 80% confluence, they were harvested using 0.25% trypsin/EDTA solution. The harvested cells were re-suspended in appropriate medium and reseeded in 96-well plate at a density of 3,000 cells/well/200 μl. Cells were allowed to attach for 24 h, then various concentrations of the test compositions were added to each appropriate well. […] At the end of 6 days, viable cells were measured by MTT assay as described above in Example 2. […]

SMILES	half life [1] [min]	percent inhibition of tumor cell growth [2] [%]
O=C1O[C@H]([C@@H](O)CO)C(O)=C1O [Ascorbic acid]	30	–
O=c1cc(-c2ccc(O)c(O)c2)oc2cc(O)cc(O)c12 [Sample #5, Luteolin]	–	10
COc1cc(/C=C/C(=O)CC(=O)/C=C/c2ccc(O)c(OC)c2)ccc1O [Sample #6, Curcumin]	–	9
